Where a name gives a salt, the structure may show the parent alone.
Test: Excretion and recovery of radioactivity after single oral administration, target dose 1 mg free base/kg
Assay type: in vivo, male Sprague Dawley rats
Design: Excretion of Radioactivity, Urine / Excretion of Radioactivity, Cage Wash: unit not given beside the values
Settings: for Recovery of Radioactivity, Carcass / Recovery of Radioactivity, GI Tract: at 168 hours
From the text: [^14C] N,N,-diethyl-8,8-dipropyl-2-azaspiro[4,5]decane-2-propanamine dimaleate salt, (“Compound II”) with a specific activity of 91 uCi/mg and chemical purity >99%, and non-radiolabeled dimaleate salt of N,N,-diethyl-8,8-dipropyl-2-azaspiro[4,5]decane-2-propanamine dimaleate (Compound 1) chemical purity >98%, respectively, were used in this study. The site of the radiocarbon label in Compound II is depicted by an asterisk in Formula II. The non-radiolabeled material was used for reference purposes. The radiolabeled material was stored at ca −80° C. in the dark and the non-radiolabeled material at ca −20° C. in the dark.
Three healthy male Sprague Dawley rats (Crl:CD(SD)BR), age ca 8-9 weeks, body weights at dosing 237-255 g, were supplied by Charles River (UK) Limited. The animals were housed in holding cages suitable for this species for 8 days prior to use. SDS Rat and Mouse Maintenance Diet No. 1, (Special Diets Services, Witham Essex), and mains quality water were available ad libitum throughout. The diet and water supplied to the animals were routinely analyzed for quality and no problems were detected. Holding and study areas had automatic control of light cycle and temperature. The actual range of temperature measured during the study was 17-25° C. with relative humidity measured at 60%.
The dose was prepared for oral administration on the day of dosing. […]
For each rat, an aliquot of the dose solution was administered orally by gavage. […] For each dose, the combined weight of dose and dosing equipment were recorded prior to dosing and the discharged dosing equipment was weighed after dosing. The concentration of radioactive material in each dose solution was also determined.
Immediately following dosing, the rats were placed into all glass metabolism cages suitable for the quantitative collection of excreta and expired air. All samples were collected into individual, uniquely labeled containers.
[…] The collection containers were cooled by solid CO2 during the first 48 hours after dosing.
[…] Collection containers were cooled by solid CO2 during the first 48 hours.
At the time of each feces collection, each cage was washed with water (ca 750 mL) and the washings were retained for radioassay. During the periods 0-24 h and 24-48 hours after dosing, expired air was passed through 2 serial traps containing ethanolamine:ethoxyethaonol (3:7, v/v) in order to effect the removal of CO2. The trap solvent was sampled for radioassay at the end of each collection period.
At 168 hours post dose, each animal was killed by CO2 narcosis and cervical dislocation. Gastrointestinal tracts were removed and retained separately from the carcasses in preparation for radioassay.
Duplicate aliquots of urine (ca 0.3 mL) and cage washings (ca 1 mL) were dispensed, diluted to 1 mL with distilled water (if considered necessary) and mixed with Quickzint 1 scintillation fluid (10 mL; Zinsser Analytic Maidenhead, UK).
Feces were homogenised in 1 to 2 volumes of water with the sample and homogenate weight recorded. Duplicate aliquots (ca 0.3 ) were taken from each sample and dispensed onto combustopads contained in combustocones (Canberra Packard Limited, Pangbourne, UK). When dry, these samples were combusted using a Packard Tri-Carb 306 Automatic Sample Oxidiser. The resultant ^14CO2 generated was collected by absorption in Carbo-Sorb® (8 mL; Canberra Packard Limited) to which Permafluor®E^+ scintillation fluid (10 mL; Canberra Packard Limited) was added.
For each rat, the carcass and gastro-intestinal tract with contents were solubilised in Soluene 350 (Canberra Packard). When dissolved, portions of the digest (ca 0.1 mL) were taken for liquid scintillation spectrometry. The volume was made up to 1 mL by the addition of methanol then 10 mL Quickzint was added and the samples counted as for the other liquid samples. […]

[1] = 168 hour collection period, #3 male

**Q.** What does the source list for `CCCC1(CCC)CCC2(CCN(CCCN(CC)CC)C2)CC1` [Compound II, [^14C] N,N,-diethyl-8,8-dipropyl-2-azaspiro[4,5]decane-2-propanamine dimaleate salt]?
**A.** Excretion of Radioactivity, Feces (72-96 hours, Mean): 7.8; Excretion of Radioactivity, Urine (72-96 hours, Mean): 1.6; Excretion of Radioactivity, Cage Wash (96-120 hours, #1 male): 0.1; Excretion of Radioactivity, Feces (96-120 hours, #1 male): 5.5; Excretion of Radioactivity, Urine (96-120 hours, #1 male): 1.2; Excretion of Radioactivity, Cage Wash (96-120 hours, #2 male): 0.2; Excretion of Radioactivity, Feces (96-120 hours, #2 male): 4.1; Excretion of Radioactivity, Urine (96-120 hours, #2 male): 1.5; Excretion of Radioactivity, Cage Wash (96-120 hours, #3 male): 0.2; Excretion of Radioactivity, Feces (96-120 hours, #3 male): 6.4; Excretion of Radioactivity, Urine (96-120 hours, #3 male): 1.6; Excretion of Radioactivity, Cage Wash (96-120 hours, Mean): 0.2; Excretion of Radioactivity, Feces (96-120 hours, Mean): 5.3; Excretion of Radioactivity, Urine (96-120 hours, Mean): 1.4; Excretion of Radioactivity, Cage Wash (120-144 hours, #1 male): 0.1; Excretion of Radioactivity, Feces (120-144 hours, #1 male): 3.5; Excretion of Radioactivity, Urine (120-144 hours, #1 male): 0.9; Excretion of Radioactivity, Cage Wash (120-144 hours, #2 male): 0.1; Excretion of Radioactivity, Feces (120-144 hours, #2 male): 3.5; Excretion of Radioactivity, Urine (120-144 hours, #2 male): 1.3; Excretion of Radioactivity, Cage Wash (120-144 hours, #3 male): 0.3; Excretion of Radioactivity, Feces (120-144 hours, #3 male): 4.3; Excretion of Radioactivity, Urine (120-144 hours, #3 male): 1.3; Excretion of Radioactivity, Cage Wash (120-144 hours, Mean): 0.2; Excretion of Radioactivity, Feces (120-144 hours, Mean): 3.8; Excretion of Radioactivity, Urine (120-144 hours, Mean): 1.2; Excretion of Radioactivity, Urine (144-162 hours, #1 male): 0.8; Excretion of Radioactivity, Urine (144-162 hours, #2 male): 1.0; Excretion of Radioactivity, Urine (144-162 hours, #3 male): 1.2; Excretion of Radioactivity, Urine (144-162 hours, Mean): 1.0; Excretion of Radioactivity, Cage Wash (144-168 hours, #1 male): 0.2; Excretion of Radioactivity, Feces (144-168 hours, #1 male): 3.0; Excretion of Radioactivity, Cage Wash (144-168 hours, #2 male): 0.2; Excretion of Radioactivity, Feces (144-168 hours, #2 male): 3.2; Excretion of Radioactivity, Cage Wash (144-168 hours, #3 male): 0.2; Excretion of Radioactivity, Feces (144-168 hours, #3 male): 3.1; Excretion of Radioactivity, Cage Wash (144-168 hours, Mean): 0.2; Excretion of Radioactivity, Feces (144-168 hours, Mean): 3.1; Recovery of Radioactivity, Total (168 hour collection period, #1 male): 96.7 % administered dose; Recovery of Radioactivity, Total (168 hour collection period, #2 male): 103.0 % administered dose; Recovery of Radioactivity, Cage Washings [1]: *1.3 % administered dose; Recovery of Radioactivity, Total [1]: 103.2 % administered dose; Recovery of Radioactivity, Total (168 hour collection period, Mean): 101.0 % administered dose; Recovery of Radioactivity, Expired air 1 (#1 male): *<0.1 % administered dose; Recovery of Radioactivity, Expired air 2 (#1 male): *<0.1 % administered dose; Recovery of Radioactivity, Expired air 1 (#2 male): *<0.1 % administered dose; Recovery of Radioactivity, Expired air 2 (#2 male): *<0.1 % administered dose; Recovery of Radioactivity, Expired air 1 (#3 male): *<0.1 % administered dose; Recovery of Radioactivity, Expired air 2 (#3 male): *<0.1 % administered dose; Recovery of Radioactivity, Expired air 1 (Mean): ^+<0.1 % administered dose; Recovery of Radioactivity, Expired air 2 (Mean): ^+<0.1 % administered dose; Recovery of Radioactivity, Carcass (#1 male): 11.3 % administered dose; Recovery of Radioactivity, GI Tract (#1 male): 13.8 % administered dose; Recovery of Radioactivity, Carcass (#2 male): 14.1 % administered dose; Recovery of Radioactivity, GI Tract (#2 male): 13.3 % administered dose; Recovery of Radioactivity, Carcass (#3 male): 14.9 % administered dose; Recovery of Radioactivity, GI Tract (#3 male): 10.5 % administered dose; Recovery of Radioactivity, Carcass (Mean): ~13.5 % administered dose; Recovery of Radioactivity, GI Tract (Mean): ~12.5 % administered dose; Dose recovered in excreta and cage washings (mean, full 168 hour collection period): 75.0%; Administered radioactive dose recovered (total) (range over three rats, 168 hours): 96.7-103.2%; Dose recovered in the excreta (up to 120 hours after dosing): ~66 % of the dose

Reference: patent US20070015780A1, “Method of treating cancer with azaspirane compositions” (priority 2003, published 2007)
